In EPA's ToxRefDB 2:

Assays:
rabbit [1] = details: Prenatal developmental toxicity study, himalayan, Oral, Gavage/Intubation, dose end: 28 GD
rat [2] = details: Prenatal developmental toxicity study, sprague dawley, Oral, Gavage/Intubation, dose end: 20 GD
rat [3] = details: Multigenerational reproductive toxicity study, sprague dawley, Oral, Feed, dose end: 2 generation
rat [4] = details: Multigenerational reproductive toxicity study, wistar, Oral, Feed, dose end: 2 generation
rat [5] = details: Prenatal developmental toxicity study, sprague dawley, Oral, Gavage/Intubation, dose end: 17 GD
rabbit [6] = details: Prenatal developmental toxicity study, new zealand white, Oral, Gavage/Intubation, dose end: 18 GD
[7] = group: developmental, developmental / developmental malformation / general / crown-rump length + systemic / in life observation / body weight / fetal weight
[8] = group: maternal, reproductive / reproductive performance / premature delivery / premature delivery + systemic / in life observation / body weight / body …
[9] = group: developmental, developmental / developmental malformation / bone / [other] + developmental / developmental malformation / bone / delayed ossification + …
[10] = group: maternal, systemic / in life observation / body weight / body weight gain
[11] = group: offspring, systemic / in life observation / body weight / offspring (pup) weight + systemic / in life observation / body weight / offspring (pup) …
[12] = group: parental, systemic / organ weight / kidney / absolute + systemic / organ weight / kidney / relative to body weight + systemic / pathology microscopic…
[13] = group: maternal, reproductive / reproductive performance / fertility / fertility + reproductive / reproductive performance / precoital interval / precoital …
[14] = group: offspring, developmental / offspring survival late / viability index / viability index
[15] = group: offspring, developmental / offspring survival late / viability index / viability index + reproductive / offspring survival early / dead fetuses / dead …
[16] = group: parental, systemic / in life observation / body weight / body weight + systemic / in life observation / body weight / body weight gain + systemic / in…
[17] = group: reproductive, reproductive / reproductive performance / gestational length / gestational length + reproductive / reproductive performance / gestation …
[18] = group: developmental, developmental / developmental malformation / bone / incomplete ossification + systemic / in life observation / body weight / fetal weight
[19] = group: maternal, systemic / in life observation / body weight / body weight gain + systemic / in life observation / clinical signs / alopecia + systemic / in…
[20] = group: developmental, developmental / developmental malformation / bone / incomplete ossification + developmental / developmental malformation / bone / short + …
[21] = group: maternal, reproductive / reproductive performance / resorptions / resorptions + systemic / in life observation / body weight / body weight + systemic…

Question: What does the source list for `O=C(NCc1ncc(C(F)(F)F)cc1Cl)c1c(Cl)cccc1Cl` [Fluopicolide]?
Answer: LEL (rabbit [1]; [7]): 60 mg/kg/day; LOAEL (rabbit [1]; [7]): 60 mg/kg/day; NEL (rabbit [1]; [7]): 20 mg/kg/day; NOAEL (rabbit [1]; [7]): 20 mg/kg/day; LEL (rabbit [1]; [8]): 60 mg/kg/day; LOAEL (rabbit [1]; [8]): 60 mg/kg/day; NEL (rabbit [1]; [8]): 20 mg/kg/day; NOAEL (rabbit [1]; [8]): 20 mg/kg/day; LEL (rat [2]; [9]): 700 mg/kg/day; LOAEL (rat [2]; [9]): 700 mg/kg/day; NEL (rat [2]; [9]): 60 mg/kg/day; NOAEL (rat [2]; [9]): 60 mg/kg/day; LEL (rat [2]; [10]): 700 mg/kg/day; LOAEL (rat [2]; [10]): 700 mg/kg/day; NEL (rat [2]; [10]): 60 mg/kg/day; NOAEL (rat [2]; [10]): 60 mg/kg/day; LEL (rat [3]; [11]): 180 mg/kg/day; LOAEL (rat [3]; [11]): 180 mg/kg/day; NEL (rat [3]; [11]): 43.7 mg/kg/day; NOAEL (rat [3]; [11]): 43.7 mg/kg/day; LEL (rat [3]; [12]): 145 mg/kg/day; LOAEL (rat [3]; [12]): 145 mg/kg/day; NEL (rat [3]; [12]): 36.4 mg/kg/day; NOAEL (rat [3]; [12]): 36.4 mg/kg/day

Question: Which results are given for `Fc1ccc([C@@]2(Cn3cncn3)O[C@@H]2c2ccccc2Cl)cc1` [Epoxiconazole]?
Answer: LEL (rat [4]; [13]): 22.1 mg/kg/day; LOAEL (rat [4]; [13]): 22.1 mg/kg/day; NEL (rat [4]; [13]): 2.17 mg/kg/day; NOAEL (rat [4]; [13]): 2.17 mg/kg/day; LEL (rat [4]; [14]): 0.85 mg/kg/day; NEL (rat [4]; [14]): < 0.85 mg/kg/day; LOAEL (rat [4]; [15]): 22.1 mg/kg/day; NOAEL (rat [4]; [15]): 2.17 mg/kg/day; LEL (rat [4]; [16]): 22.1 mg/kg/day; LOAEL (rat [4]; [16]): 22.1 mg/kg/day; NEL (rat [4]; [16]): 2.17 mg/kg/day; NOAEL (rat [4]; [16]): 2.17 mg/kg/day; LEL (rat [4]; [17]): 31.9 mg/kg/day; LOAEL (rat [4]; [17]): 31.9 mg/kg/day; NEL (rat [4]; [17]): 2.41 mg/kg/day; NOAEL (rat [4]; [17]): 2.41 mg/kg/day

Question: Which LEL (rat [5]; [18]) does the source give for `Cc1cccc(C)c1NC(=O)c1ccc(N)cc1` [Ameltolide] here?
Answer: Its LEL is 50 mg/kg/day.

Question: What about the LOAEL (rat [5]; [18]) of the same compound?
Answer: Its LOAEL is > 50 mg/kg/day.

Question: What about the NEL (rat [5]; [18]) of the same compound?
Answer: Its NEL is 25 mg/kg/day.

Question: What about the NOAEL (rat [5]; [18]) of the same compound?
Answer: The NOAEL was ≥ 50 mg/kg/day.

Question: And the LEL (rat [5]; [19])?
Answer: Its LEL is 50 mg/kg/day.

Question: And the LOAEL (rat [5]; [19])?
Answer: The LOAEL was > 50 mg/kg/day.

Question: And the NEL (rat [5]; [19])?
Answer: The NEL was 25 mg/kg/day.

Question: And the NOAEL (rat [5]; [19])?
Answer: The NOAEL was ≥ 50 mg/kg/day.

Question: What about the LEL (rabbit [6]; [20]) of the same compound?
Answer: The LEL was 100 mg/kg/day.

Question: And the LOAEL (rabbit [6]; [20])?
Answer: Its LOAEL is > 100 mg/kg/day.

Question: And the NEL (rabbit [6]; [20])?
Answer: Its NEL is 50 mg/kg/day.

Question: What about the NOAEL (rabbit [6]; [20]) of the same compound?
Answer: The NOAEL was ≥ 100 mg/kg/day.

Question: And the LEL (rabbit [6]; [21])?
Answer: Its LEL is 100 mg/kg/day.

Question: And the LOAEL (rabbit [6]; [21])?
Answer: The LOAEL was > 100 mg/kg/day.

Question: And the NEL (rabbit [6]; [21])?
Answer: Its NEL is 50 mg/kg/day.

Question: And the NOAEL (rabbit [6]; [21])?
Answer: Its NOAEL is ≥ 100 mg/kg/day.
